Experimental data reported in US5770382A, “Tricyclic retinoids, methods for their production and use” (Ligand Pharmaceuticals, Inc., priority 1995, dated 1998).
Entries after “also recorded” stand apart in the source; their conditions may differ.

Assays:
[1] = test system: RAR and RXR receptors; experiment: Co-transfection assay, summary for RARs and RXRs; type: cell-based; conditions: for potency profile in comparison to 9-cis retinoic acid (in words): versus 9-cis
Description: (§1) Utilizing the "cis-trans" or "co-transfection" assay described by Evans et al., Science, 240:889-95 (May 13, 1988), the disclosure of which is herein incorporated by reference, the retinoid compounds of the present invention were tested and found to have strong, specific activity as either selective RAR agonists, selective RXR agonists, or as pan-agonist activators of both RAR and RXR receptors. This assay is described in further detail in U.S. Pat. Nos. 4,981,784 and 5,071,773, the disclosures of which are incorporated herein by reference.
(§2) The co-transfection assay provides a method for identifying functional agonists which mimic, or antagonists which inhibit, the effect of native hormones, and quantifying their activity for responsive IR proteins. In this regard, the co-transfection assay mimics an in vivo system in the laboratory. Importantly, activity in the co-transfection assay correlates very well with known in vivo activity, such that the co-transfection assay functions as a qualitative and quantitative predictor of a tested compounds Ln vivo pharmacology. See, e.g., T. Berger et al. 41 J. Steroid Biochem. Molec. Biol. 733 (1992), the disclosure of which is herein incorporated by reference.
(§3) In the co-transfection assay, a cloned cDNA for an IR (e.g., human RARα, RARβ, RXRγ) under the control of a constitutive promoter (e.g., the SV 40 promoter) is introduced by transfection (a procedure to induce cells to take up foreign genes) into a background cell substantially devoid of endogenous IRs. This introduced gene directs the recipient cells to make the IR protein of interest. A second gene is also introduced (co-transfected) into the same cells in conjunction with the IR gene. This second gene, comprising the cDNA for a reporter protein, such as firefly luciferase (LUC), controlled by an appropriate hormone responsive promoter containing a hormone response element (HRE). This reporter plasmid functions as a reporter for the transcription-modulating activity of the target IR. Thus, the reporter acts as a surrogate for the products (mRNA then protein) normally expressed by a gene under control of the target receptor and its native hormone.
(§4) The co-transfection assay can detect small molecule agonists or antagonists of target IRs. Exposing the transfected cells to an agonist ligand compound increases reporter activity in the transfected cells. This activity can be conveniently measured, e.g., by increasing luciferase production, which reflects compound-dependent, IR-mediated increases in reporter transcription. […] . Increasing concentrations of a suspected antagonist will decrease the reporter signal (e.g., luciferase production). The co-transfection assay is therefore useful to detect both agonists and antagonists of specific IRs. Furthermore, it determines not only whether a compound interacts with a particular IR, but whether this interaction mimics (agonizes) or blocks (antagonizes) the effects of the native regulatory molecules on target gene expression, as well as the specificity and strength of this interaction.
To determine RAR and/or RXR agonist activity of the compounds of the present invention, the CV-1 cells were transiently transfected by calcium phosphate coprecipitation according to the procedure of Berger et al., 41 J.Steroid Biochem. Mol. Biol., 733 (1992) with the following receptor expressing plasmids: pRShRARα: Giguere et al., 330 Nature, 624 (1987); pRShRARβ and pRShRARγ, Ishikawa et al., 4 Mol. Endocrin., 837 (1990); pRShRXRα, Mangelsdorf et al., 345 Nature, 224 (1990); and pRSmRXRβ and pRSmRXRγ, Mangelsdorf et al., 6 Genes & Devel., 329 (1992), the disclosures of which are herein incorporated by reference.

[2] = test system: RARs; experiment: Co-transfection assay, summary for the RARs; type: cell-based, human
Description: as §1, §2, §3
as §4, with “Furthermore, it determines not only whether a compound interacts with a particular IR, but whether this interaction mimics (agonizes) or blocks (antagonizes) the effects of the native regulatory molecules on target gene expression, as well as the specificity and strength of this interaction.” left out

[3] = target: T1, RXRα (Homo sapiens, UniProt P19793); experiment: Co-transfection assay, RXRα agonist activity; type: cell-based; conditions: CV-1 cells, 40 hours; read-out: RXRα Pot (potency, EC50)
T1 construct: expressed in transfected cells; host or cells: CV-1 (African green monkey kidney fibroblasts)
T1 sequence (P19793 1-462): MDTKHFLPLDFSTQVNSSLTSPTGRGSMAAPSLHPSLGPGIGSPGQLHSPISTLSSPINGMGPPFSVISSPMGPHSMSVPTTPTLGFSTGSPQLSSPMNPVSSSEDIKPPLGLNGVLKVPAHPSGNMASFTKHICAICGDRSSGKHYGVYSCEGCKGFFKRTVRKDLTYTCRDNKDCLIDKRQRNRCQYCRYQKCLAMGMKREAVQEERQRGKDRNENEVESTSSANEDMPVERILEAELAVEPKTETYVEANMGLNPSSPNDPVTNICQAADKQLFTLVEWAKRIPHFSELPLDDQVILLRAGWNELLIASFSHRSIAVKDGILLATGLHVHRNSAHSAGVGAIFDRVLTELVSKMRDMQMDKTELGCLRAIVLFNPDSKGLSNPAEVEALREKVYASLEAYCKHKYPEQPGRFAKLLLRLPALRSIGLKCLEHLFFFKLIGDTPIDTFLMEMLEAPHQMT

[4] = test system: ornithine decarboxylase (ODC); conditions: literature; cited from earlier work

SMILES | agonist type on RAR and RXR receptors (in words) [1] | potency profile in comparison to 9-cis retinoic acid (in words) [1] | RAR activity / selectivity (in words) [2] | also measured
CC(/C=C/CC1CCCc2cc3c(cc21)C(C)(C)CCC3(C)C)=C\C(=O)O (racemic) [Compound 124b, (2E,4E)-3-Methyl-6-(1,2,3,4,5,6,7,8-octahydro-5,5,8,8-tetramethylanthracen-1-yl)hexa-2,4-dienoic acid] | pan-agonist | superior potency profiles |  | 
CC(/C=C/C=C1/CCCc2cc3c(cc21)C(C)(C)CCC3(C)C)=C\C(=O)O [Compound 101b, (2E,4E)-3-Methyl-6-[(Z)-3,4,5,6,7,8-hexahydro-5,5,8,8-tetramethyl-2H-anthracen-1-ylidene]hexa-2,4-dienoic acid] | pan-agonist | superior potency profiles | extremely potent RAR active | 
CC(/C=C/C=C1\CCCc2cc3c(cc21)C(C)(C)CCC3(C)C)=C\C(=O)O [Compound 109b, (2E,4E)-3-Methyl-6-[(E)-3,4,5,6,7,8-hexahydro-5,5,8,8-tetramethyl-2H-anthracen-1-ylidene]hexa-2,4-dienoic acid] |  |  | extremely potent RAR active; also recorded: RAR selective | 
CC(/C=C/C=C1\CCOc2cc3c(cc21)C(C)(C)CCC3(C)C)=C\C(=O)O [Compound 119b, (2E,4E)-3-Methyl-6-[(E)-2,3,6,7,8,9-hexahydro-6,6,9,9-tetramethyl-benzo[g]chromen-4-ylidene]hexa-2,4-dienoic acid] |  |  | extremely potent RAR active; also recorded: RAR selective | 
CC(/C=C/C=C1/CCOc2cc3c(cc21)C(C)(C)CCC3(C)C)=C\C(=O)O [Compound 144b] | pan-agonist | superior potency profiles | extremely potent RAR active | 
CCN1CC\C(=C/C=C/C(C)=C/C(=O)O)c2cc3c(cc21)C(C)(C)CCC3(C)C [Compound 147b, (2E,4E)-3-methyl-6-[(E)1-ethyl-6,6,9,9-tetramethyl-2,3,6,7,8,9-hexahydro-1H-benzo[g]quinolin-4-ylidene]hexa-2,4-dienoic acid] |  |  |  | EC50 [3]: > 10 µM
CC1=C(/C=C/C(C)=C/C=C/C(C)=C/C(=O)O)C(C)(C)CCC1 [retinoic acid] |  |  |  | inhibition of TPA induction of ODC (in words) [4]: inhibits this induction of ODC by TPA
